Laboratory results from patent publication US20260248788A1, “NEW COMPOUNDS AND TREATMENT OF RENAL CELL CARCINOMA” (TRUSTLIFE THERAPEUTICS INC., priority 2023, published 2026).
pIC50: −log10 of the molar value. “Also recorded” adds a separate entry of the source.

What was measured:
Format in all cases: cell-based, human
BUB1B = experiment: Western blot of BUB1B in Caki-1 cells treated with TG-101209 derivatives; conditions: for expression levels of BUB1B (Western blot): Caki-1 cells, 5 μM of target drug, 1 day (FIG. 41, 56); for expression levels of BUB1B (summary statement): concentration not given
Experimental: (§1) Cell culture 2: Caki-1 was purchased from CLS Cell Lines Service (Germany). The cells were maintained in McCoy's 5A (modified) medium (16600082, Thermo Fisher Scientific, USA) and supplemented with 10% fetal bovine serum (FBS, F7524, Sigma-Aldrich), 1% Penicillin/Streptomycin (P4333, Sigma-Aldrich).
The target drugs developed as alternatives to TG-101209, were dissolved in 0.1% DMSO (41639, Sigma-Aldrich). Caki-1 cells from cell culture 2 were seeded in a 6-well plate at 3×10^5 cells per well. […]
The cells were washed with PBS solution and then lysed with CelLytic M (C2978, Sigma-Aldrich) lysis buffer containing protease inhibitors (11836170001, Roche). The cell lysates were centrifuged at 12 000 rpm for 10 min and supernatants were collected. Protein Assay Dye Reagent (5000006, Bio-Rad) was used for the determination of protein concentration. The absorbance of the proteins was measured spectrophotometrically at 595 nm by a microplate reader (Hidex Sense Beta Plus). Protein electrophoresis was performed using Mini-PROTEAN® TGX™ Precast Gels (4561086, Bio-Rad) and then the separated proteins were transferred to a Trans-Blot Turbo Mini 0.2 μm PVDF Transfer Packs membrane (1704158, Bio-Rad) by using Trans-Blot® Turbo™ Transfer System (Bio-Rad). The membrane was blocked with 5% skim milk for 30 min at 4° C. with gentle rocking. After blocking, the membrane was treated with primary antibodies: Anti-BUB1B (HPA008419, Human Protein Atlas, Sweden) and Anti-Beta actin (ab8227, Abcam) as a loading control overnight at 4° C. on a rocking platform. After the treatment of primary antibodies, the membrane was washed three times with TBS-T buffer (A09-7500-100, Medicago). Then, Goat anti-Rabbit IgG-HRP (ab205718, Abcam) was treated as the secondary antibody for 30 min at 4° C. with gentle rocking.

Caki-1 cells [1] = experiment: MTT cell viability assay; conditions: for cell viability of treated cells (summary statement): concentration not given; for reduction in cell viability (MTT) / effect on cell viability (MTT): 1 day
Experimental: as §1
The cytotoxic effects of the TG-101209 and its alternatives on the Caki-1 cells were tested by MTT (Thiazolyl Blue Tetrazolium Bromide) method. 1.5×10^4 cells were seeded per well in a 96-well plate in 100 μL growth media. […] After the incubation period, 5 mg/ml MTT (M2128, Sigma-Aldrich) solution in PBS (10 μL) was added to each well. After 1 hour, the MTT solution and all media were removed from the wells. 100 μl of DMSO was added and mixed to dissolve the formazan crystals. Cell viability was analysed by measuring the absorbance of the dissolved formazan at a wavelength of 570 nm with a microplate reader (Hidex Sense Beta Plus).

Caki-1 cells [2] = experiment: LDH cytotoxicity assay; conditions: 1 day; for cytotoxicity (LDH assay): Caki-1, 10 μM; for Ranking, Cytotoxicity (%): top five, LDH assay, 10 μM, rank 1 = highest
Experimental: as §1
Lactate dehydrogenase (LDH) assay was performed with LDH Assay Kit (ab65393). […] 20 μl of media was analysed with LDH Assay Kit as per manufacturer's instruction.

Row | Compound | expression levels of BUB1B (Western blot) (BUB1B) | cell viability of treated cells (summary statement) (Caki-1 cells [1]) | expression levels of BUB1B (summary statement) (BUB1B) | reduction in cell viability (MTT) (Caki-1 cells [1]; Caki-1, 5 μM, first batch) | also measured
1 | Cc1cnc(Nc2ccc(N3CCN(C)CC3)cc2)nc1Nc1cccc(S(=O)(=O)Nc2ccccc2)c1 [Compound M3, 3-((5-methyl-2-((4-(4-methylpiperazin-1-yl)phenyl)amino)pyrimidin-4-yl)amino)-N-phenylbenzenesulfonamide] | significantly lower the expression levels of BUB1B | – | – | – | –
2 | Cc1cnc(Nc2ccc(N3CCN(C)CC3)cc2)nc1Nc1cccc(S(=O)(=O)N2CCOCC2)c1 [Compound M7, 5-methyl-N2-(4-(4-methylpiperazin-1-yl)phenyl)-N4-(3-(morpholinosulfonyl)phenyl)pyrimidine-2,4-diamine] | significantly lower the expression levels of BUB1B | especially low cell viability; also recorded: reduced cell viability | reduction of the expression levels of BUB1B | – | –
3 | Cc1cn(-c2cc(Nc3ncc(C)c(Nc4cccc(S(=O)(=O)NC(C)(C)C)c4)n3)cc(C(F)(F)F)c2)cn1 [Compound M64, N-(tert-butyl)-3-((5-methyl-2-((3-(4-methyl-1H-imidazol-1-yl)-5-(trifluoromethyl)phenyl)amino)pyrimidin-4-yl)amino)benzenesulfonamide] | significantly lower the expression levels of BUB1B | – | – | – | –
4 | COc1cc(Nc2ncc(C)c(Nc3cccc(S(=O)(=O)NC(C)(C)C)c3)n2)cc(OC)c1 [Compound M79, N-(tert-butyl)-3-((2-((3,5-dimethoxyphenyl)amino)-5-methylpyrimidin-4-yl)amino)benzenesulfonamide] | significantly lower the expression levels of BUB1B | especially low cell viability; also recorded: significantly reduced cell viability | reduction of the expression levels of BUB1B | – | –
5 | Cc1ccc(Nc2ncc(C)c(Nc3cccc(S(=O)(=O)NC(C)(C)C)c3)n2)cc1Nc1nc(-c2cccnc2)cs1 [Compound M88, N-(tert-butyl)-3-((5-methyl-2-((4-methyl-3-((4-(pyridin-3-yl)thiazol-2-yl)amino)phenyl)amino)pyrimidin-4-yl)amino)benzenesulfonamide] | significantly lower the expression levels of BUB1B | especially low cell viability; also recorded: significantly reduced cell viability | reduction of the expression levels of BUB1B | – | pIC50 (Caki-1 cells [1]; Homo sapiens, 24 h, Caki-1, 1 day (FIG. 43), text: after treatment with 5 μM): < 5.52
6 | COc1cc(NC(=O)c2ccc(Nc3ncc(C)c(Nc4cccc(S(=O)(=O)NC(C)(C)C)c4)n3)cc2)cc(OC)c1 [Compound M101A, 4-((4-((3-(N-(tert-butyl)sulfamoyl)phenyl)amino)-5-methylpyrimidin-2-yl)amino)-N-(3,5-dimethoxyphenyl)benzamide] | – | particularly low cell viability; also recorded: significantly reduced cell viability | – | the greatest | cytotoxicity (LDH assay) (Caki-1 cells [2]; first batch): exhibited cytotoxicity; Ranking, Cytotoxicity (%) (Caki-1 cells [2]): 5; effect on cell viability (MTT) (Caki-1 cells [1]; Caki-1, 10 μM, first batch): most profound effect
7 | Cc1cnc(Nc2ccc(C(=O)Nc3cccc(Br)c3)cc2)nc1Nc1cccc(S(=O)(=O)NC(C)(C)C)c1 [Compound M101B, N-(3-bromophenyl)-4-((4-((3-(N-(tert-butyl)sulfamoyl)phenyl)amino)-5-methylpyrimidin-2-yl)amino)benzamide] | – | particularly low cell viability; also recorded: significantly reduced cell viability | – | the greatest | cytotoxicity (LDH assay) (Caki-1 cells [2]; first batch): exhibited cytotoxicity; Ranking, Cytotoxicity (%) (Caki-1 cells [2]): 3
8 | Cc1cnc(Nc2ccc(C(=O)Nc3cccc(S(=O)(=O)NC(C)(C)C)c3)cc2)nc1Nc1cccc(S(=O)(=O)NC(C)(C)C)c1 [Compound M101D, N-(3-(N-(tert-butyl)sulfamoyl)phenyl)-4-((4-((3-(N-(tert-butyl)sulfamoyl)phenyl)amino)-5-methylpyrimidin-2-yl)amino)benzamide] | – | particularly low cell viability; also recorded: significantly reduced cell viability | – | the greatest | cytotoxicity (LDH assay) (Caki-1 cells [2]; first batch): highest cytotoxicity; Ranking, Cytotoxicity (%) (Caki-1 cells [2]): 1; effect on cell viability (MTT) (Caki-1 cells [1]; Caki-1, 10 μM, first batch): greatest reduction of cell viability
9 | Cc1cnc(Nc2ccc(C(=O)Nc3cccc(S(=O)(=O)N4CCOCC4)c3)cc2)nc1Nc1cccc(S(=O)(=O)NC(C)(C)C)c1 [Compound M101F, 4-((4-((3-(N-(tert-butyl)sulfamoyl)phenyl)amino)-5-methylpyrimidin-2-yl)amino)-N-(3-(morpholinosulfonyl)phenyl)benzamide] | – | particularly low cell viability; also recorded: significantly reduced cell viability | – | the greatest | cytotoxicity (LDH assay) (Caki-1 cells [2]; first batch): exhibited cytotoxicity
10 | Cc1cnc(Nc2ccc(C(=O)Nc3ccc(OCCCN4CCOCC4)cc3)cc2)nc1Nc1cccc(S(=O)(=O)NC(C)(C)C)c1 [Compound M101G, 4-((4-((3-(N-(tert-butyl)sulfamoyl)phenyl)amino)-5-methylpyrimidin-2-yl)amino)-N-(4-(3-morpholinopropoxy)phenyl)benzamide] | – | particularly low cell viability; also recorded: significantly reduced cell viability | – | the greatest | –
11 | Cc1cnc(Nc2ccc(C(=O)Nc3ccc4ncccc4c3)cc2)nc1Nc1cccc(S(=O)(=O)NC(C)(C)C)c1 [Compound M101H, 4-((4-((3-(N-(tert-butyl)sulfamoyl)phenyl)amino)-5-methylpyrimidin-2-yl)amino)-N-(quinolin-6-yl)benzamide] | – | particularly low cell viability; also recorded: significantly reduced cell viability | – | the greatest | –
12 | Cc1ccc(NC(=O)c2ccc(Nc3ncc(C)c(Nc4cccc(S(=O)(=O)NC(C)(C)C)c4)n3)cc2)cc1S(N)(=O)=O [Compound M101Q, 4-((4-((3-(N-(tert-butyl)sulfamoyl)phenyl)amino)-5-methylpyrimidin-2-yl)amino)-N-(4-methyl-3-sulfamoylphenyl)benzamide] | – | – | – | – | cytotoxicity (LDH assay) (Caki-1 cells [2]; second batch): greatest cytotoxicity
13 | Cc1cnc(Nc2ccc(C(=O)Nc3ccc(Oc4ccc(Cl)cc4)nc3)cc2)nc1Nc1cccc(S(=O)(=O)NC(C)(C)C)c1 [Compound M101V, 4-((4-((3-(N-(tert-butyl)sulfamoyl)phenyl)amino)-5-methylpyrimidin-2-yl)amino)-N-(6-(4-chlorophenoxy)pyridin-3-yl)benzamide] | – | – | – | – | cytotoxicity (LDH assay) (Caki-1 cells [2]; second batch): greatest cytotoxicity
14 | COc1cc(Nc2ncc(C)c(Nc3cccc(S(=O)(=O)N4CCOCC4)c3)n2)cc(OC)c1OC [Compound M115, 5-methyl-N4-(3-(morpholinosulfonyl)phenyl)-N2-(3,4,5-trimethoxyphenyl)pyrimidine-2,4-diamine] | – | especially low cell viability; also recorded: reduced cell viability | reduction of the expression levels of BUB1B | – | –
15 | COc1cc(Nc2ncc(C)c(Nc3ccc(N4CCN(C)CC4)cc3)n2)cc(OC)c1OC [Compound M119, 5-methyl-N4-(4-(4-methylpiperazin-1-yl)phenyl)-N2-(3,4,5-trimethoxyphenyl)pyrimidine-2,4-diamine] | – | especially low cell viability; also recorded: significantly reduced cell viability | reduction of the expression levels of BUB1B | – | –
16 | Cc1cnc(Nc2ccc(C(=O)Nc3ccc(N4CCN(C)CC4)cc3)cc2)nc1Nc1ccc(N2CCN(C)CC2)cc1 [ME3, 4-((5-methyl-4-((4-(4-methylpiperazin-1-yl)phenyl)amino)pyrimidin-2-yl)amino)-N-(4-(4-methylpiperazin-1-yl)phenyl)benzamide] | – | particularly low cell viability; also recorded: significantly reduced cell viability | – | – | reduction in cell viability (MTT) (Caki-1 cells [1]; Caki-1, 10 μM, second batch): the greatest
